Each structure is given as a SMILES string.

The test deals with HPPD enzymes from different organisms. The test is described as follows: HPPD activity assay, summary statement. It counts as biochemical. To be noted: all HPPD enzymes from different organisms of Table 12. Here is the method: The activity assay for HPPD is based on the analysis of homogentisic acid by reversed phase HPLC.
The assay mixture can contain 150 mM potassium phosphate buffer pH 7.0, 50 mM L-ascorbic acid, 100 μM Catalase (Sigma-Aldrich), 1 μM FeSO4 and 0.2 units of purified HPPD enzyme in a total volume of 505 μl. 1 unit is defined as the amount of enzyme that is required to produce 1 nmol of HGA per minute at 20° C.
The reaction is allowed to proceed for 45 min at room temperature. The reaction is stopped by the addition of 50 μl of 4.5 M phosphoric acid. The sample is filtered using a […] pore size PVDF filtration device. 5 μl of the cleared sample is analyzed on an UPLC HSS T3 column (particle size 1.8 μm, dimensions 2, 1×50 mm; Waters) by isocratic elution using 90% 20 mM NaH2PO4 pH 2.2, 10% methanol (v/v).
HGA is detected electrochemically at 750 mV (mode: DC; polarity: positive) and quantified by integrating peak areas (Empower software; Waters).
Inhibitors are dissolved in DMSO (dimethylsulfoxide) to a concentration of 0.5 mM. From this stock solution serial five-fold dilutions are prepared in DMSO, which are used in the assay. The respective inhibitor solution accounts for 1% of the assay volume. Thus, final inhibitor concentrations range from 5 μM to 320 pM, respectively. […] IC50 values are calculated using non-linear regression. […]

For the compound `Cc1c(C(=O)c2cnn(C)c2O)ccc(S(C)(=O)=O)c1C1=NOCC1` [Inhibitor 1, [3-(4,5-dihydroisoxazol-3-yl)-2-methyl-4-methylsulfonyl-phenyl]-(5-hydroxy-1-methyl-pyrazol-4-yl)methanone], the “fold more resistant in respect to the reference SEQ ID NO:53” value is given as “at least 1.7 fold”.

The values above are taken from patent US12065654B2, “Plants having increased tolerance to herbicides” (BASF SE, priority 2014, dated 2024).
